# From PubChem BioAssay (NCI)
#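 Exposure lasted 48 hours, with cells grown in 96-well plates and compounds tested at five concentrations. TGI: total growth inhibition.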
# How the values were obtained:
# Experiment in all cases: NCI tumour cell line growth inhibition, 48 h
# 786-0 renal = system: 786-0 renal
# A498 renal = system: A498 renal
# A549 NSCLC = system: A549 NSCLC
# ACHN renal = system: ACHN renal
# CAKI-1 renal = system: CAKI-1 renal
# CCRF-CEM leukemia = system: CCRF-CEM leukemia
# COLO 205 colon = system: COLO 205 colon
# DMS 114 small cell lung = system: DMS 114 small cell lung
# DMS 273 small cell lung = system: DMS 273 small cell lung
# EKVX NSCLC = system: EKVX NSCLC
# HCC-2998 colon = system: HCC-2998 colon
# HCT-116 colon = system: HCT-116 colon
# HCT-15 colon = system: HCT-15 colon
# HL-60(TB) leukemia = system: HL-60(TB) leukemia
# HOP-18 NSCLC = system: HOP-18 NSCLC
# HOP-62 NSCLC = system: HOP-62 NSCLC
# HOP-92 NSCLC = system: HOP-92 NSCLC
# HT29 colon = system: HT29 colon
# IGROV1 ovarian = system: IGROV1 ovarian
# K-562 leukemia = system: K-562 leukemia
# KM12 colon = system: KM12 colon
# KM20L2 colon = system: KM20L2 colon
# LOX IMVI melanoma = system: LOX IMVI melanoma
# LXFL 529 NSCLC = system: LXFL 529 NSCLC
# M14 melanoma = system: M14 melanoma
# M19-MEL melanoma = system: M19-MEL melanoma
# MALME-3M melanoma = system: MALME-3M melanoma
# MOLT-4 leukemia = system: MOLT-4 leukemia
# NCI-H226 lung = system: NCI-H226 lung
# NCI-H23 lung = system: NCI-H23 lung
# NCI-H460 lung = system: NCI-H460 lung
# NCI-H522 lung = system: NCI-H522 lung
# NCI/ADR-RES ovarian = system: NCI/ADR-RES ovarian
# OVCAR-3 ovarian = system: OVCAR-3 ovarian
# OVCAR-4 ovarian = system: OVCAR-4 ovarian
# OVCAR-5 ovarian = system: OVCAR-5 ovarian
# OVCAR-8 ovarian = system: OVCAR-8 ovarian
# P388 leukemia = system: P388 leukemia
# P388/ADR leukemia = system: P388/ADR leukemia
# RPMI-8226 leukemia = system: RPMI-8226 leukemia
# RXF 393 renal = system: RXF 393 renal
# SF-268 CNS = system: SF-268 CNS
# SF-295 CNS = system: SF-295 CNS
# SF-539 CNS = system: SF-539 CNS
# SK-MEL-2 melanoma = system: SK-MEL-2 melanoma
# SK-MEL-28 melanoma = system: SK-MEL-28 melanoma
# SK-MEL-5 melanoma = system: SK-MEL-5 melanoma
# SK-OV-3 ovarian = system: SK-OV-3 ovarian
# SN12C renal = system: SN12C renal
# SN12K1 renal = system: SN12K1 renal
# SNB-19 CNS = system: SNB-19 CNS
# SNB-75 CNS = system: SNB-75 CNS
# SR leukemia = system: SR leukemia
# SW-620 colon = system: SW-620 colon
# TK-10 renal = system: TK-10 renal
# U251 CNS = system: U251 CNS
# UACC-257 melanoma = system: UACC-257 melanoma
# UACC-62 melanoma = system: UACC-62 melanoma
# UO-31 renal = system: UO-31 renal
# XF 498 CNS = system: XF 498 CNS
# DLD-1 colon = system: DLD-1 colon
# MCF7 breast = system: MCF7 breast
# SNB-78 CNS = system: SNB-78 CNS
smiles,measurement,setting,value
CNC(=O)c1cccc2c(Nc3ccc(NS(C)(=O)=O)cc3OC)c3cccc(C)c3nc12,TGI,786-0 renal,0.413 µM
same,TGI,A498 renal,1.15 µM
same,TGI,A549 NSCLC,1.61 µM
same,TGI,ACHN renal,0.322 µM
same,TGI,CAKI-1 renal,1.41 µM
same,TGI,CCRF-CEM leukemia,0.197 µM
same,TGI,COLO 205 colon,5.24 µM
same,TGI,DMS 114 small cell lung,1.25 µM
same,TGI,DMS 273 small cell lung,1.69 µM
same,TGI,EKVX NSCLC,12.1 µM
same,TGI,HCC-2998 colon,2.34 µM
same,TGI,HCT-116 colon,2.86 µM
same,TGI,HCT-15 colon,2.34 µM
same,TGI,HL-60(TB) leukemia,0.0552 µM
same,TGI,HOP-18 NSCLC,3.36 µM
same,TGI,HOP-62 NSCLC,0.155 µM
same,TGI,HOP-92 NSCLC,3.67 µM
same,TGI,HT29 colon,3.69 µM
same,TGI,IGROV1 ovarian,13.2 µM
same,TGI,K-562 leukemia,4.79 µM
same,TGI,KM12 colon,2.42 µM
same,TGI,KM20L2 colon,3.72 µM
same,TGI,LOX IMVI melanoma,3.17 µM
same,TGI,LXFL 529 NSCLC,6.74 µM
same,TGI,M14 melanoma,2.63 µM
same,TGI,M19-MEL melanoma,8.54 µM
same,TGI,MALME-3M melanoma,4.55 µM
same,TGI,MOLT-4 leukemia,0.0512 µM
same,TGI,NCI-H226 lung,1.05 µM
same,TGI,NCI-H23 lung,0.58 µM
same,TGI,NCI-H460 lung,0.816 µM
same,TGI,NCI-H522 lung,2.51 µM
same,TGI,NCI/ADR-RES ovarian,9.36 µM
same,TGI,OVCAR-3 ovarian,5.02 µM
same,TGI,OVCAR-4 ovarian,4.35 µM
same,TGI,OVCAR-5 ovarian,3.54 µM
same,TGI,OVCAR-8 ovarian,5.98 µM
same,TGI,P388 leukemia,< 0.0384 µM
same,TGI,P388/ADR leukemia,1.07 µM
same,TGI,RPMI-8226 leukemia,1.7 µM
same,TGI,RXF 393 renal,3.52 µM
same,TGI,SF-268 CNS,8.58 µM
same,TGI,SF-295 CNS,0.555 µM
same,TGI,SF-539 CNS,0.661 µM
same,TGI,SK-MEL-2 melanoma,6.37 µM
same,TGI,SK-MEL-28 melanoma,10.9 µM
same,TGI,SK-MEL-5 melanoma,1.9 µM
same,TGI,SK-OV-3 ovarian,0.907 µM
same,TGI,SN12C renal,0.927 µM
same,TGI,SN12K1 renal,1.61 µM
same,TGI,SNB-19 CNS,5.04 µM
same,TGI,SNB-75 CNS,1.34 µM
same,TGI,SR leukemia,0.365 µM
same,TGI,SW-620 colon,5.5 µM
same,TGI,TK-10 renal,8.2 µM
same,TGI,U251 CNS,0.719 µM
same,TGI,UACC-257 melanoma,10.6 µM
same,TGI,UACC-62 melanoma,1.38 µM
same,TGI,UO-31 renal,2.89 µM
same,TGI,XF 498 CNS,3.25 µM
CC(C)(C)OC(=O)NC1CCC(C(C)(C)C)CC1 (stereo not given),TGI,A498 renal,> 100 µM
same,TGI,A549 NSCLC,> 100 µM
same,TGI,CCRF-CEM leukemia,> 100 µM
same,TGI,COLO 205 colon,> 100 µM
same,TGI,DLD-1 colon,> 100 µM
same,TGI,DMS 114 small cell lung,> 100 µM
same,TGI,DMS 273 small cell lung,99.2 µM
same,TGI,EKVX NSCLC,> 100 µM
same,TGI,HCC-2998 colon,> 100 µM
same,TGI,HCT-116 colon,> 100 µM
same,TGI,HCT-15 colon,> 100 µM
same,TGI,HL-60(TB) leukemia,36.1 µM
same,TGI,HOP-18 NSCLC,> 100 µM
same,TGI,HOP-62 NSCLC,> 100 µM
same,TGI,HT29 colon,> 87.3 µM
same,TGI,IGROV1 ovarian,> 100 µM
same,TGI,K-562 leukemia,> 100 µM
same,TGI,KM12 colon,> 100 µM
same,TGI,KM20L2 colon,> 100 µM
same,TGI,LOX IMVI melanoma,> 100 µM
same,TGI,M19-MEL melanoma,> 86.7 µM
same,TGI,MALME-3M melanoma,> 93.8 µM
same,TGI,MCF7 breast,> 100 µM
same,TGI,MOLT-4 leukemia,67.2 µM
same,TGI,NCI-H226 lung,> 100 µM
same,TGI,NCI-H23 lung,> 100 µM
same,TGI,NCI-H460 lung,> 100 µM
same,TGI,NCI-H522 lung,> 100 µM
same,TGI,NCI/ADR-RES ovarian,> 100 µM
same,TGI,OVCAR-3 ovarian,> 100 µM
same,TGI,OVCAR-4 ovarian,> 100 µM
same,TGI,OVCAR-5 ovarian,> 100 µM
same,TGI,OVCAR-8 ovarian,> 100 µM
same,TGI,P388 leukemia,48.5 µM
same,TGI,P388/ADR leukemia,> 100 µM
same,TGI,RPMI-8226 leukemia,> 100 µM
same,TGI,RXF 393 renal,> 92.2 µM
same,TGI,SF-268 CNS,> 100 µM
same,TGI,SF-295 CNS,> 55.3 µM
same,TGI,SF-539 CNS,> 100 µM
same,TGI,SK-MEL-2 melanoma,71.3 µM
same,TGI,SK-MEL-28 melanoma,> 100 µM
same,TGI,SK-MEL-5 melanoma,> 72.4 µM
same,TGI,SK-OV-3 ovarian,> 100 µM
same,TGI,SN12C renal,> 100 µM
same,TGI,SN12K1 renal,> 100 µM
same,TGI,SNB-19 CNS,> 100 µM
same,TGI,SNB-75 CNS,> 100 µM
same,TGI,SNB-78 CNS,> 100 µM
same,TGI,SW-620 colon,> 100 µM
same,TGI,U251 CNS,> 100 µM
same,TGI,UACC-257 melanoma,> 61.8 µM
same,TGI,UACC-62 melanoma,> 100 µM
same,TGI,UO-31 renal,> 100 µM
same,TGI,XF 498 CNS,> 96.5 µM
